# Laboratory results as given in PubChem BioAssay (NCI).
#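 Compound exposure: 48 hours, 5 concentrations, 96-well plates. Abbreviation: GI50, concentration required for 50% inhibition of growth. TGI: concentration producing complete growth inhibition.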
# Experiments:
# Assay in all cases: DTP human tumour cell line panel, 48 h
# 786-0 renal = test system: 786-0 renal
# A498 renal = test system: A498 renal
# ACHN renal = test system: ACHN renal
# CAKI-1 renal = test system: CAKI-1 renal
# CCRF-CEM leukemia = test system: CCRF-CEM leukemia
# COLO 205 colon = test system: COLO 205 colon
# DU-145 prostate = test system: DU-145 prostate
# HCT-116 colon = test system: HCT-116 colon
# HCT-15 colon = test system: HCT-15 colon
# HL-60(TB) leukemia = test system: HL-60(TB) leukemia
# HOP-92 NSCLC = test system: HOP-92 NSCLC
# HT29 colon = test system: HT29 colon
# K-562 leukemia = test system: K-562 leukemia
# KM12 colon = test system: KM12 colon
# M14 melanoma = test system: M14 melanoma
# MDA-MB-231 breast = test system: MDA-MB-231 breast
# MDA-MB-435 = test system: MDA-MB-435
# MOLT-4 leukemia = test system: MOLT-4 leukemia
# NCI-H226 lung = test system: NCI-H226 lung
# NCI-H460 lung = test system: NCI-H460 lung
# NCI-H522 lung = test system: NCI-H522 lung
# NCI/ADR-RES ovarian = test system: NCI/ADR-RES ovarian
# OVCAR-3 ovarian = test system: OVCAR-3 ovarian
# OVCAR-4 ovarian = test system: OVCAR-4 ovarian
# OVCAR-5 ovarian = test system: OVCAR-5 ovarian
# PC-3 prostate = test system: PC-3 prostate
# RPMI-8226 leukemia = test system: RPMI-8226 leukemia
# SF-268 CNS = test system: SF-268 CNS
# SF-539 CNS = test system: SF-539 CNS
# SK-MEL-28 melanoma = test system: SK-MEL-28 melanoma
# SK-MEL-5 melanoma = test system: SK-MEL-5 melanoma
# SK-OV-3 ovarian = test system: SK-OV-3 ovarian
# SNB-19 CNS = test system: SNB-19 CNS
# SNB-75 CNS = test system: SNB-75 CNS
# SR leukemia = test system: SR leukemia
# SW-620 colon = test system: SW-620 colon
# T-47D breast = test system: T-47D breast
# TK-10 renal = test system: TK-10 renal
# U251 CNS = test system: U251 CNS
# UACC-257 melanoma = test system: UACC-257 melanoma
# UACC-62 melanoma = test system: UACC-62 melanoma
# UO-31 renal = test system: UO-31 renal
# A549 NSCLC = test system: A549 NSCLC
# BT-549 breast = test system: BT-549 breast
# EKVX NSCLC = test system: EKVX NSCLC
# HCC-2998 colon = test system: HCC-2998 colon
# HOP-62 NSCLC = test system: HOP-62 NSCLC
# IGROV1 ovarian = test system: IGROV1 ovarian
# LOX IMVI melanoma = test system: LOX IMVI melanoma
# MALME-3M melanoma = test system: MALME-3M melanoma
# MCF7 breast = test system: MCF7 breast
# NCI-H23 lung = test system: NCI-H23 lung
# OVCAR-8 ovarian = test system: OVCAR-8 ovarian
# RXF 393 renal = test system: RXF 393 renal
# SF-295 CNS = test system: SF-295 CNS
# SK-MEL-2 melanoma = test system: SK-MEL-2 melanoma
# SN12C renal = test system: SN12C renal
smiles,measurement,setting,value
CCCCN1CCN(c2ccc3nc(-c4ccc5nc(-c6ccc(OCC)c(OCC)c6)[nH]c5c4)[nH]c3c2)CC1,GI50,786-0 renal,1.41 µM
same,TGI,786-0 renal,2.84 µM
same,GI50,A498 renal,1.18 µM
same,TGI,A498 renal,2.47 µM
same,GI50,ACHN renal,0.922 µM
same,TGI,ACHN renal,2.12 µM
same,GI50,CAKI-1 renal,1.04 µM
same,TGI,CAKI-1 renal,2.52 µM
same,GI50,CCRF-CEM leukemia,0.538 µM
same,TGI,CCRF-CEM leukemia,3.06 µM
same,GI50,COLO 205 colon,0.231 µM
same,TGI,COLO 205 colon,1.52 µM
same,GI50,DU-145 prostate,1 µM
same,TGI,DU-145 prostate,2.21 µM
same,GI50,HCT-116 colon,0.431 µM
same,TGI,HCT-116 colon,1.66 µM
same,GI50,HCT-15 colon,1.56 µM
same,TGI,HCT-15 colon,3.32 µM
same,GI50,HL-60(TB) leukemia,0.704 µM
same,TGI,HL-60(TB) leukemia,3.18 µM
same,GI50,HOP-92 NSCLC,1.23 µM
same,TGI,HOP-92 NSCLC,3.17 µM
same,GI50,HT29 colon,0.802 µM
same,TGI,HT29 colon,2.97 µM
same,GI50,K-562 leukemia,0.529 µM
same,TGI,K-562 leukemia,2.27 µM
same,GI50,KM12 colon,1.42 µM
same,TGI,KM12 colon,2.99 µM
same,GI50,M14 melanoma,0.314 µM
same,TGI,M14 melanoma,1.55 µM
same,GI50,MDA-MB-231 breast,1.69 µM
same,TGI,MDA-MB-231 breast,3.28 µM
same,GI50,MDA-MB-435,1.09 µM
same,TGI,MDA-MB-435,2.39 µM
same,GI50,MOLT-4 leukemia,1.22 µM
same,TGI,MOLT-4 leukemia,3.86 µM
same,GI50,NCI-H226 lung,1.29 µM
same,TGI,NCI-H226 lung,3.95 µM
same,GI50,NCI-H460 lung,0.533 µM
same,TGI,NCI-H460 lung,1.86 µM
same,GI50,NCI-H522 lung,1.2 µM
same,TGI,NCI-H522 lung,3.97 µM
same,GI50,NCI/ADR-RES ovarian,> 100 µM
same,TGI,NCI/ADR-RES ovarian,> 100 µM
same,GI50,OVCAR-3 ovarian,0.358 µM
same,TGI,OVCAR-3 ovarian,0.85 µM
same,GI50,OVCAR-4 ovarian,1.48 µM
same,TGI,OVCAR-4 ovarian,3.21 µM
same,GI50,OVCAR-5 ovarian,1.9 µM
same,TGI,OVCAR-5 ovarian,3.4 µM
same,GI50,PC-3 prostate,1.08 µM
same,TGI,PC-3 prostate,2.44 µM
same,GI50,RPMI-8226 leukemia,0.436 µM
same,TGI,RPMI-8226 leukemia,2.06 µM
same,GI50,SF-268 CNS,2.66 µM
same,TGI,SF-268 CNS,22 µM
same,GI50,SF-539 CNS,1.26 µM
same,TGI,SF-539 CNS,2.56 µM
same,GI50,SK-MEL-28 melanoma,1.01 µM
same,TGI,SK-MEL-28 melanoma,2.22 µM
same,GI50,SK-MEL-5 melanoma,1.09 µM
same,TGI,SK-MEL-5 melanoma,3.16 µM
same,GI50,SK-OV-3 ovarian,1.33 µM
same,TGI,SK-OV-3 ovarian,3.27 µM
same,GI50,SNB-19 CNS,1.22 µM
same,TGI,SNB-19 CNS,2.61 µM
same,GI50,SNB-75 CNS,0.65 µM
same,TGI,SNB-75 CNS,2.01 µM
same,GI50,SR leukemia,0.312 µM
same,TGI,SR leukemia,1.19 µM
same,GI50,SW-620 colon,0.474 µM
same,TGI,SW-620 colon,1.79 µM
same,GI50,T-47D breast,1.36 µM
same,TGI,T-47D breast,7.88 µM
same,GI50,TK-10 renal,1.66 µM
same,TGI,TK-10 renal,5.17 µM
same,GI50,U251 CNS,1.28 µM
same,TGI,U251 CNS,2.69 µM
same,GI50,UACC-257 melanoma,1.21 µM
same,TGI,UACC-257 melanoma,10.5 µM
same,GI50,UACC-62 melanoma,0.686 µM
same,TGI,UACC-62 melanoma,2.18 µM
same,GI50,UO-31 renal,2 µM
same,TGI,UO-31 renal,5.8 µM
N=C(N)SCc1ccc([N+](=O)[O-])cc1[N+](=O)[O-],GI50,786-0 renal,11.8 µM
same,TGI,786-0 renal,27.8 µM
same,GI50,A498 renal,29.9 µM
same,TGI,A498 renal,66.6 µM
same,GI50,A549 NSCLC,21.6 µM
same,TGI,A549 NSCLC,66.4 µM
same,GI50,ACHN renal,8.04 µM
same,TGI,ACHN renal,21.1 µM
same,GI50,BT-549 breast,7.35 µM
same,TGI,BT-549 breast,28.6 µM
same,GI50,CAKI-1 renal,4.86 µM
same,TGI,CAKI-1 renal,15.8 µM
same,GI50,CCRF-CEM leukemia,3.77 µM
same,TGI,CCRF-CEM leukemia,> 100 µM
same,GI50,COLO 205 colon,2.9 µM
same,TGI,COLO 205 colon,7.96 µM
same,GI50,DU-145 prostate,2.25 µM
same,TGI,DU-145 prostate,9.95 µM
same,GI50,EKVX NSCLC,11 µM
same,TGI,EKVX NSCLC,25.8 µM
same,GI50,HCC-2998 colon,6.05 µM
same,TGI,HCC-2998 colon,18.1 µM
same,GI50,HCT-116 colon,3.53 µM
same,TGI,HCT-116 colon,13.6 µM
same,GI50,HCT-15 colon,5.01 µM
same,TGI,HCT-15 colon,19.4 µM
same,GI50,HL-60(TB) leukemia,3.38 µM
same,TGI,HL-60(TB) leukemia,17.3 µM
same,GI50,HOP-62 NSCLC,33.9 µM
same,TGI,HOP-62 NSCLC,79.1 µM
same,GI50,HOP-92 NSCLC,2.4 µM
same,TGI,HOP-92 NSCLC,9.91 µM
same,GI50,HT29 colon,5.44 µM
same,TGI,HT29 colon,18.9 µM
same,GI50,IGROV1 ovarian,4.33 µM
same,TGI,IGROV1 ovarian,15.3 µM
same,GI50,K-562 leukemia,3.42 µM
same,TGI,K-562 leukemia,21 µM
same,GI50,KM12 colon,9.5 µM
same,TGI,KM12 colon,22.7 µM
same,GI50,LOX IMVI melanoma,8.66 µM
same,TGI,LOX IMVI melanoma,25 µM
same,GI50,M14 melanoma,12.8 µM
same,TGI,M14 melanoma,29.4 µM
same,GI50,MALME-3M melanoma,3.48 µM
same,TGI,MALME-3M melanoma,18.7 µM
same,GI50,MCF7 breast,2.04 µM
same,TGI,MCF7 breast,16.9 µM
same,GI50,MDA-MB-231 breast,12 µM
same,TGI,MDA-MB-231 breast,36.6 µM
same,GI50,MDA-MB-435,11.8 µM
same,TGI,MDA-MB-435,29.3 µM
same,GI50,MOLT-4 leukemia,3.07 µM
same,TGI,MOLT-4 leukemia,20.2 µM
same,GI50,NCI-H226 lung,25.3 µM
same,TGI,NCI-H226 lung,62.4 µM
same,GI50,NCI-H23 lung,10.6 µM
same,TGI,NCI-H23 lung,36.2 µM
same,GI50,NCI-H460 lung,12.7 µM
same,TGI,NCI-H460 lung,32.7 µM
same,GI50,NCI-H522 lung,1.48 µM
same,TGI,NCI-H522 lung,3.12 µM
same,GI50,NCI/ADR-RES ovarian,23 µM
same,TGI,NCI/ADR-RES ovarian,89 µM
same,GI50,OVCAR-3 ovarian,4.54 µM
same,TGI,OVCAR-3 ovarian,15.2 µM
same,GI50,OVCAR-4 ovarian,6.01 µM
same,TGI,OVCAR-4 ovarian,18.7 µM
same,GI50,OVCAR-5 ovarian,23.1 µM
same,TGI,OVCAR-5 ovarian,40 µM
same,GI50,OVCAR-8 ovarian,14.3 µM
same,TGI,OVCAR-8 ovarian,75.7 µM
same,GI50,PC-3 prostate,13.4 µM
same,TGI,PC-3 prostate,87.2 µM
same,GI50,RPMI-8226 leukemia,5.26 µM
same,TGI,RPMI-8226 leukemia,72.2 µM
same,GI50,RXF 393 renal,1.38 µM
same,TGI,RXF 393 renal,4.13 µM
same,GI50,SF-268 CNS,13.9 µM
same,TGI,SF-268 CNS,69.8 µM
same,GI50,SF-295 CNS,31.3 µM
same,TGI,SF-295 CNS,> 100 µM
same,GI50,SF-539 CNS,11 µM
same,TGI,SF-539 CNS,25.7 µM
same,GI50,SK-MEL-2 melanoma,4.5 µM
same,TGI,SK-MEL-2 melanoma,16.6 µM
same,GI50,SK-MEL-5 melanoma,6.38 µM
same,TGI,SK-MEL-5 melanoma,19.6 µM
same,GI50,SK-OV-3 ovarian,20.8 µM
same,TGI,SK-OV-3 ovarian,53.7 µM
same,GI50,SN12C renal,12.1 µM
same,TGI,SN12C renal,27.2 µM
same,GI50,SNB-19 CNS,26 µM
same,TGI,SNB-19 CNS,79 µM
same,GI50,SNB-75 CNS,19.6 µM
same,TGI,SNB-75 CNS,50.5 µM
same,GI50,SR leukemia,3.09 µM
same,TGI,SR leukemia,11.4 µM
same,GI50,T-47D breast,2.59 µM
same,TGI,T-47D breast,11.4 µM
same,GI50,TK-10 renal,5.9 µM
same,TGI,TK-10 renal,19.7 µM
same,GI50,U251 CNS,19.2 µM
same,TGI,U251 CNS,> 100 µM
same,GI50,UACC-257 melanoma,4.44 µM
same,TGI,UACC-257 melanoma,17 µM
same,GI50,UACC-62 melanoma,11.3 µM
same,TGI,UACC-62 melanoma,25.3 µM
same,GI50,UO-31 renal,3.21 µM
same,TGI,UO-31 renal,14.3 µM
